{"source": "ChEMBL document CHEMBL1201862", "about": "“PubChem BioAssay data set” (2004)", "key": {"[1]": {"assay": "Luminescence Cell-Based Dose Response HTS to Identify Activators of Luciferase Translation or Activity in H4-C Neuroglioblastoma Cells. [Related pubchem assays: 1829 (Project Summary), 1814 (Primary HTS)]", "type": "functional"}, "[2]": {"assay": "Luminescence Cell-Based Dose Retest to Confirm Activators of 5'UTR Stem-Loop Driven Alpha-Synuclein mRNA Translation in H4 Neuroglioblastoma Cells. [Related pubchem assays (depositor defined):AID1813, AID1829]", "type": "functional"}, "[3]": {"assay": "Luminescence Cell-Based Dose Response HTS to Identify Activators of 5'UTR Stem-Loop Driven Prion Protein mRNA Translation in H4-C Neuroglioblastoma Cells. [Related pubchem assays: 1829 (Project Summary), 1814 (Primary HTS)]", "type": "functional"}, "[4]": {"assay": "Luminescence Cell-Based Dose Confirmation HTS to Identify Activators of 5'UTR Stem-Loop Driven Alpha-Synuclein mRNA Translation in H4 Neuroglioblastoma Cells. [Related pubchem assays: 1829 (Project Summary), 1814 (Primary HTS)]", "type": "functional"}, "[5]": {"assay": "Luminescence Cell-Based Dose Response HTS to Identify Activators of Luciferase Translation or Activity in H4 […] Cells. [Related pubchem assays: 1829 (Project Summary), 1814 (Primary HTS)]", "type": "functional"}, "H4": {"tested_on": "H4", "assay": "Luminescence Cell-Based Dose Response HTS to Identify Activators of 5'UTR Stem-Loop Driven Prion Protein mRNA Translation in H4 Neuroglioblastoma Cells. [Related pubchem assays: 1829 (Project Summary), 1814 (Primary HTS)]", "type": "functional", "conditions": "Homo sapiens"}, "[6]": {"target": "T1, Voltage-dependent T-type calcium channel subunit alpha-1H (Homo sapiens, UniProt O95180)", "T1 sequence (O95180 whole entry)": "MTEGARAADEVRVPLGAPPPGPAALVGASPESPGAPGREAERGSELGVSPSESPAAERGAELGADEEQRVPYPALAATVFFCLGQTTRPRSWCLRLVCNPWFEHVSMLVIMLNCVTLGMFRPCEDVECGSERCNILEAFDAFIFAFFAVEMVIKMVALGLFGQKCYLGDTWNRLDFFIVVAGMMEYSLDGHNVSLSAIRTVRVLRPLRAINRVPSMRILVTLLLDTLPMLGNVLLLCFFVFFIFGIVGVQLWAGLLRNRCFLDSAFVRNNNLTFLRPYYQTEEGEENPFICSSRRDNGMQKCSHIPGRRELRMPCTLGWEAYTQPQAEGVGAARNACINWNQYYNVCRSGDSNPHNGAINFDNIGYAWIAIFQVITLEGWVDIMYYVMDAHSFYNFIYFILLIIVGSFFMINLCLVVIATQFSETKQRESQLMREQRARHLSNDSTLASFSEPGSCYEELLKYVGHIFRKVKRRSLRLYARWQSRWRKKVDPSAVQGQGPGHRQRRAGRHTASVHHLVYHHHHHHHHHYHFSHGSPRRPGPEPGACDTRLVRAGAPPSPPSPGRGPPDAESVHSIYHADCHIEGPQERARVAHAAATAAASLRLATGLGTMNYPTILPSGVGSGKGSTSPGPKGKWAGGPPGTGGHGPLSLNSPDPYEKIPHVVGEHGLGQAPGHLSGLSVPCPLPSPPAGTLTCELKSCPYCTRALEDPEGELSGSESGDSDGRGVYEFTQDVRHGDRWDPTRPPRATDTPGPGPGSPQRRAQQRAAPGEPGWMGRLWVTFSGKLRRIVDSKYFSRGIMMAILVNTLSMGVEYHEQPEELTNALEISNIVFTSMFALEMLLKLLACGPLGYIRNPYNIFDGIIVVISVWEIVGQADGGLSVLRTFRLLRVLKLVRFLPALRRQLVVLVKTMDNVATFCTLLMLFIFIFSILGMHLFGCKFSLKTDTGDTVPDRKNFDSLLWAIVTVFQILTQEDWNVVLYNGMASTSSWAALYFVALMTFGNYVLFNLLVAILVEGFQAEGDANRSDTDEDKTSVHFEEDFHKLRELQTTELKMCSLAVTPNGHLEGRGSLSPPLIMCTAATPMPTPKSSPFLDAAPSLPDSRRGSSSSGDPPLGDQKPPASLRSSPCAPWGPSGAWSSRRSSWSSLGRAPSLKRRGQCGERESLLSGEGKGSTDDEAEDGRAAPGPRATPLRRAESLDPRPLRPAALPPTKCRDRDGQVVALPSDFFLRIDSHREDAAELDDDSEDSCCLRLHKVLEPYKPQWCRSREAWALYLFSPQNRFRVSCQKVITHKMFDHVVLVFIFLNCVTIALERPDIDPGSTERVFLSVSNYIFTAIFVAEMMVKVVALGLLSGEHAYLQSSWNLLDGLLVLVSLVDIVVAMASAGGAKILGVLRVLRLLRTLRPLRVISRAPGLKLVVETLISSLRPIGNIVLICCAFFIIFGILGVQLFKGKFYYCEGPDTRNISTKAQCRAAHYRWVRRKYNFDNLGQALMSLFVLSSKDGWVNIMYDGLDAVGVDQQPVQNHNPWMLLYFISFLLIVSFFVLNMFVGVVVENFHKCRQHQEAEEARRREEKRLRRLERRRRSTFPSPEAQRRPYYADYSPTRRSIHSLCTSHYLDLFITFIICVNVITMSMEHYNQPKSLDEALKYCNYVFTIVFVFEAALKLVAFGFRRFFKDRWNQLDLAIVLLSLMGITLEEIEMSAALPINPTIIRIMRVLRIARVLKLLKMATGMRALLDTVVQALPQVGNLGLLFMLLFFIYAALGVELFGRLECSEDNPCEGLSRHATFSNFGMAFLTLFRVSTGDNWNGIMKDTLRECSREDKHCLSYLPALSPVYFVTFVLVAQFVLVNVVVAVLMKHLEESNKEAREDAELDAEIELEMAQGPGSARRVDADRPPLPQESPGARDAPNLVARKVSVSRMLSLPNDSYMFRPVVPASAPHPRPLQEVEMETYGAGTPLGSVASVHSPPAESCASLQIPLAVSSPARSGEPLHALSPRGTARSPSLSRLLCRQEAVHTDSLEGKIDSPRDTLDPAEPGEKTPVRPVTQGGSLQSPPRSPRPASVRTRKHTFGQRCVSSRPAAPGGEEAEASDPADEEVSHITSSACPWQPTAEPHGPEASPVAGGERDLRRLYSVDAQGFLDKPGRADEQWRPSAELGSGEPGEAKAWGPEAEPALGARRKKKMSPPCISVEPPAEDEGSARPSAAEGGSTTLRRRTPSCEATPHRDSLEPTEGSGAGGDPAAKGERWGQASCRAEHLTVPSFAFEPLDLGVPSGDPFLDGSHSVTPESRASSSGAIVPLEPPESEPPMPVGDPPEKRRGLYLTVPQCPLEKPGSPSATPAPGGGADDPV", "type": "functional"}, "[7]": {"target": "T1, Voltage-dependent T-type calcium channel subunit alpha-1H", "assay": "Inhibitors of T-Type Calcium Channels. [Related pubchem assays (depositor defined):AID449739, AID463087, AID489005, AID493041, AID504579, AID504584, AID504619, AID504628]", "type": "functional"}, "CHO-K1": {"tested_on": "CHO-K1", "assay": "(§1) Counterscreen for antagonists of the orexin 1 receptor (OX1R; HCRTR1): Homogeneous time resolved fluorescence (HTRF)-based cell-based dose response assay to identify antagonists of the parental CHO-K1 cell line. [Related pubchem assays (depositor defined):AID434989, AID435008, AID463079, AID485270, AID492963, AID492964, AID492965, AID493232, AID504699, AID504701]", "type": "functional", "conditions": "Cricetulus griseus"}, "[8]": {"target": "T2, Scavenger receptor class B member 1 (Mus musculus, UniProt Q61009)", "T2 sequence (Q61009 whole entry)": "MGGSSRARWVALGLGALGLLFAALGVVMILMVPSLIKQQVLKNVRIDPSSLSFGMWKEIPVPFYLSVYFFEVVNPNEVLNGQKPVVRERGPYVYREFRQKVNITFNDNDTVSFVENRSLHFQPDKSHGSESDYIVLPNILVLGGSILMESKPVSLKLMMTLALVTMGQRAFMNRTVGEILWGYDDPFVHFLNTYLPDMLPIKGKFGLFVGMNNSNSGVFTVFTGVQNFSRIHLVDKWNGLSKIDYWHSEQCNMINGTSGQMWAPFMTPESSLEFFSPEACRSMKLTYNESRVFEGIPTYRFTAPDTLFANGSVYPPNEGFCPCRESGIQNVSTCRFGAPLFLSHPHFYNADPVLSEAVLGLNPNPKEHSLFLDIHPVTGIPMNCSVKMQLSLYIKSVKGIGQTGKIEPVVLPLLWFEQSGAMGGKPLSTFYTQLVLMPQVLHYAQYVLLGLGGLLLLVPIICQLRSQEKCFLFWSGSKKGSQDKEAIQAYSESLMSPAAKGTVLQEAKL", "assay": "mouse SR-BI DiI-HDL uptake blockers – ldlA[mSR-BI] cells, fluorescence, cherry pick, dose response (AID 493194)", "type": "functional, cell-based"}, "[9]": {"assay": "as §1, with “Fluorescence-based” for “Homogeneous time resolved fluorescence (HTRF)-based”, “cell-based high throughput” for “cell-based”, “CHO” for “CHO-K1”", "type": "functional"}, "[10]": {"target": "T3, Orexin/Hypocretin receptor type 1 (Homo sapiens, UniProt O43613)", "T3 sequence (O43613 whole entry)": "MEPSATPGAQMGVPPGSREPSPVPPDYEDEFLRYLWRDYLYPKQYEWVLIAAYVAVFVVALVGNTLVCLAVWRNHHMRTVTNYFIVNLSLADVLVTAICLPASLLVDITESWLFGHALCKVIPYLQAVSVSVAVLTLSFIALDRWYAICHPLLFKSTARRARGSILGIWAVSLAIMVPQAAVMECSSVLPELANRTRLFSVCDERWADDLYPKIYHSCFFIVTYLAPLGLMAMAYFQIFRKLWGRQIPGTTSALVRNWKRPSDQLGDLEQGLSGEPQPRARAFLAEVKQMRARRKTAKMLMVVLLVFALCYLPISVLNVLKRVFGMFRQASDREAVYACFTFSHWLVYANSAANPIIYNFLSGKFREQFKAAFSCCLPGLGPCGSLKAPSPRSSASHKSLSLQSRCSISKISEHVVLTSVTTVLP", "assay": "Homogeneous Time Resolved Fluorescence (HTRF)-based cell-based high throughput dose response assay for antagonists of the orexin 1 receptor (OX1R; HCRTR1). [Related pubchem assays (depositor defined):AID434989, AID435008, AID463079, AID485270, AID492963, AID492964, AID492965, AID493232, AID504717, AID504718]", "type": "functional"}, "[11]": {"target": "T3, Orexin/Hypocretin receptor type 1", "assay": "Fluorescence-based cell-based high throughput dose response assay for antagonists of the orexin 1 receptor (OX1R; HCRTR1). [Related pubchem assays (depositor defined):AID434989, AID435008, AID463079, AID485270, AID492963, AID492964, AID492965, AID493232, AID504717, AID504718]", "type": "functional"}, "Cytochrome P450 1A2": {"target": "T4, Cytochrome P450 1A2 (Homo sapiens, UniProt P05177)", "T4 sequence (P05177 whole entry)": "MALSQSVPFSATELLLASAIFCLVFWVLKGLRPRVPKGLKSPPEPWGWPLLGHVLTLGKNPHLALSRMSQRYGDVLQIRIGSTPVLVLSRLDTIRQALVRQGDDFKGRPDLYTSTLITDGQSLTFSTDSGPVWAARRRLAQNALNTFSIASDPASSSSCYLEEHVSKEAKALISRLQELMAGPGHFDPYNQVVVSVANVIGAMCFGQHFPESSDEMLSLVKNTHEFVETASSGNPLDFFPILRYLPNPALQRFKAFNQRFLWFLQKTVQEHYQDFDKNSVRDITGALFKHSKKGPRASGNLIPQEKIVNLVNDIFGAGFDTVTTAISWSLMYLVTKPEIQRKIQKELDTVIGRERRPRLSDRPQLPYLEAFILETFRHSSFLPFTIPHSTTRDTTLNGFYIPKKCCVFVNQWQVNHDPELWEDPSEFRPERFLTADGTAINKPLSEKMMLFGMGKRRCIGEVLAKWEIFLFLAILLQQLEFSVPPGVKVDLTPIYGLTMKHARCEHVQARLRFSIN"}, "[12]": {"target": "NACHT, LRR and PYD domains-containing protein 3 (Homo sapiens, UniProt Q96P20)", "sequence (Q96P20 whole entry, the tested form may be a part)": "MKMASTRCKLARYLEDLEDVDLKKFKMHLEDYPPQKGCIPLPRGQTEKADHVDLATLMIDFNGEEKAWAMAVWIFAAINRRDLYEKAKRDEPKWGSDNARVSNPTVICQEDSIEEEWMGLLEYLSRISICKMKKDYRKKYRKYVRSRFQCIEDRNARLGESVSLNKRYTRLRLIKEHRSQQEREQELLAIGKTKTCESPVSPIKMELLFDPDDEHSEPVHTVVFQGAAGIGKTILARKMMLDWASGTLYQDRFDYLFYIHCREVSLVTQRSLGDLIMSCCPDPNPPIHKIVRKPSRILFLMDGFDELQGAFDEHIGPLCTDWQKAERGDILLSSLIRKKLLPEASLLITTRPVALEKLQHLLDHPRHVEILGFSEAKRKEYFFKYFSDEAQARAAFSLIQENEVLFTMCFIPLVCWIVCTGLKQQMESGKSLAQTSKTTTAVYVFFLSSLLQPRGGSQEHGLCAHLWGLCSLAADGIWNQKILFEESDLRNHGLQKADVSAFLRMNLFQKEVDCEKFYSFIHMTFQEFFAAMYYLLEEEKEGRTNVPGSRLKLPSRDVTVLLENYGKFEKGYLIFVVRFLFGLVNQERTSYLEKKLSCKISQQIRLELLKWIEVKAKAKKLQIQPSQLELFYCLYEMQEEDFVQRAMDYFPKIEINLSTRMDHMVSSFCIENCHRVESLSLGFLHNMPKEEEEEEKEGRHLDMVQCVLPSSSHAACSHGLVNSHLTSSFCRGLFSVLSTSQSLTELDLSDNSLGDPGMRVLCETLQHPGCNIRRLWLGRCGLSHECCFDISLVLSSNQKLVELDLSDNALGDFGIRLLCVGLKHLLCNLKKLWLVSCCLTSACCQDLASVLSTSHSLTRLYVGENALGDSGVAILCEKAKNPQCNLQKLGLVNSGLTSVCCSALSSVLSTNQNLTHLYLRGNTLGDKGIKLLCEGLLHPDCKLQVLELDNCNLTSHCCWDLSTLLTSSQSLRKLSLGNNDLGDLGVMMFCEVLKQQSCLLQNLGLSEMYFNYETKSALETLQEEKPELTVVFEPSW", "assay": "NALP3 inhibitors in yeast, dose response, luminescent (AID 488799)", "type": "functional"}}, "note": "Activity calls are given as the source filed them.", "data": [{"compound": "Cc1ccc(NC(=O)c2ccc3snnc3c2)cc1", "values": [{"measurement": "EC50", "setting": "[1]", "value": "1.88 µM (active)"}, {"measurement": "EC50", "setting": "[2]", "value": "0.885 µM (active)"}, {"measurement": "EC50", "setting": "[3]", "value": "0.185 µM (active)"}, {"measurement": "EC50", "setting": "[4]", "value": "2.76 µM (active)"}, {"measurement": "EC50", "setting": "[5]", "value": "6.57 µM (active)"}, {"measurement": "EC50", "setting": "H4", "value": "> 120 µM (not active)"}]}, {"compound": "O=S(=O)(NCc1ccccc1)c1ccc(S(=O)(=O)N(Cc2ccccn2)C2CCCC2)cc1", "values": [{"measurement": "EC50", "setting": "[6]", "value": "3.02 µM (active)"}, {"measurement": "EC50", "setting": "[7]", "value": "2.35 µM (active)"}]}, {"compound": "O=C(Nc1cccc(NC(=O)N2CCN(c3ccccc3)CC2)c1)N1CCN(c2ccccc2)CC1", "values": [{"measurement": "IC50", "setting": "CHO-K1", "value": "> 66.2 µM (inactive)"}, {"measurement": "AC50", "setting": "[8]", "value": "48.9 µM (active)"}, {"measurement": "IC50", "setting": "[9]", "value": "25.1 µM (inactive)"}, {"measurement": "IC50", "setting": "[10]", "value": "10.4 µM (inactive)"}, {"measurement": "IC50", "setting": "[11]", "value": "11 µM (inactive)"}, {"measurement": "AC50", "setting": "Cytochrome P450 1A2", "value": "15.8 µM (inconclusive)"}]}, {"compound": "CC(C)NC(=O)c1c(O)c2ccccc2[nH]c1=O", "values": [{"measurement": "IC50", "setting": "[12]", "value": "13.1 µM (active)"}]}]}
